Results: patent publication US9469645B2, “Compounds and compositions for the treatment of parasitic diseases” (Novartis AG, priority 2009, dated 2016)

Experiments:
NF54 = test: parasite proliferation assay in infected red blood cells (SYBR Green I), NF54 strain; type: cell-based; details: Plasmodium falciparum, 3D7 / NF54, Erythrocyte; cell marked (NF54): NF54 strain instead of 3D7; read-out: EC50 (NF54), printed in the 3D7 strain column
Source text: (§1) Compounds of the invention can be assayed to measure their capacity to inhibit proliferation of parasitemia in infected red blood cells. The proliferation is quantified by the addition of SYBR Green I (INVITROGEN)® dye which has a high affinity for double stranded DNA.

W2 strain [1] = test: parasite proliferation assay in infected red blood cells (SYBR Green I), W2 strain; type: cell-based; details: Erythrocyte
Source text: as §1

[2] = tested on: Trypanosoma brucei Lister 427 strain; test: Trypanosoma brucei proliferation assay (Cell Titer Glo); type: cell-based; details: Lister 427 bloodstream form, 48 hours, read-out: EC50, proliferation of T. brucei
Source text: Compounds of the invention can be assayed to measure their capacity to inhibit proliferation of kinetoplastid parasite Trypanosoma brucei. The proliferation is quantified by the addition of Cell Titer Glo (Promega®) a luminescent cell viability assay that measures the number of viable cells in culture based on the quantification of cellular ATP amount, which is an indicator of metabolically active cells.
The following assay illustrates the invention without in any way limiting the scope of the invention. This parasite proliferation assay measures the increase in parasite growth using an assay that measures ATP activity, Cell Titer Glo®.
Trypanosoma brucei Lister 427 strain is grown in HMI-9 Trypanosome media for T. brucei bloodstream form. 30 μl of HMI-9 media is dispensed into 384 well assay plates. 200 nl of compounds of the invention (in DMSO), including anti-trypanosome controls (Pentamidine and suramin), are then transferred into the assay plates, as well as DMSO alone to serve as a negative control for inhibition. Then 25 μl of a suspension of T. brucei culture in HMI-9 media is dispensed into the assay plates. The final concentration of parasites in culture corresponds to 1.7% of 0.5 uM ATP activity with Cell Titer Glo® in HMI-9 media. […] The plates are then read for luminescence.

[3] = molecular target: cannabinoid receptor 1 (CB1) (Homo sapiens, UniProt P21554); test: cannabinoid receptor 1 (CB1) IC50; type: binding; details: read-out: IC50 against CB1
Sequence of cannabinoid receptor 1 (CB1) (P21554 whole entry, species assumed): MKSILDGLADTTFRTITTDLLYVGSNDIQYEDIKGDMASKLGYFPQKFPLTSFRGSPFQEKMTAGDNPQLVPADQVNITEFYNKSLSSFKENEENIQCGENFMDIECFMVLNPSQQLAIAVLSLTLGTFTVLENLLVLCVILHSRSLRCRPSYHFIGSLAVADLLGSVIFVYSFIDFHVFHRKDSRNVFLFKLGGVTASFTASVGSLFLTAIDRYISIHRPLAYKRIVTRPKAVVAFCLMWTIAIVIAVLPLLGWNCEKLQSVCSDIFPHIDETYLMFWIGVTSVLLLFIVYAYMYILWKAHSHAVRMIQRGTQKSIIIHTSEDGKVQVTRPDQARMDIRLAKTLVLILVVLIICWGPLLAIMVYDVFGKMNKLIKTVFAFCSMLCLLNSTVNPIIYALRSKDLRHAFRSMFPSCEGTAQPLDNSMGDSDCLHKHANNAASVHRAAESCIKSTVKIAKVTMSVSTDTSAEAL

3D7 P. falciparum strain = test: parasite proliferation assay in infected red blood cells (SYBR Green I); type: cell-based, Plasmodium falciparum; details: Plasmodium falciparum, 3D7, Erythrocyte, 3D7 strain; read-out: EC50 3D7 strain
Method in brief: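 P. falciparum 3D7 grown in O+ human erythrocytes to 3–8% parasitemia and exposed to compounds. Proliferation read as the increase in parasite DNA. Detection used SYBR Green I in saponin/triton-X/EDTA lysis buffer, with overnight lysis at room temperature.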

[4] = molecular target: mitogen-activated protein kinase-activated protein kinase 2 (MapKap2 or MK-2) (Homo sapiens, UniProt P49137); test: MK-2 enzyme inhibition, single point concentration; type: biochemical
Sequence of mitogen-activated protein kinase-activated protein kinase 2 (MapKap2 or MK-2) (P49137 whole entry): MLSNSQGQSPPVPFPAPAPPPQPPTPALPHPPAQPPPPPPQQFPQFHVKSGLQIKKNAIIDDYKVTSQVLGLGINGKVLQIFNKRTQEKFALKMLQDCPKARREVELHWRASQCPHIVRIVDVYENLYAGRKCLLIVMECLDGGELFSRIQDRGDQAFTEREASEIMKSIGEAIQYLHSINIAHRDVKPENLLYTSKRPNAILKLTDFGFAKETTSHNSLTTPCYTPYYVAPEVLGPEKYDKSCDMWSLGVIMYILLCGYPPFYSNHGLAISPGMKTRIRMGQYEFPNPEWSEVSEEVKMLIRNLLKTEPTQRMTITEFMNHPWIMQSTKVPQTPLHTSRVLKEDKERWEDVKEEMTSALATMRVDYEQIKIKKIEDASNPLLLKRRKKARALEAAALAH

W2 strain [5] = test: parasite proliferation assay in infected red blood cells (SYBR Green I), W2 strain; type: cell-based, Plasmodium falciparum; details: Plasmodium falciparum, Erythrocyte
Source text: as §1

Row | Structure (SMILES) | EC50 (NF54) [nM] | EC50 (3D7 P. falciparum strain) [nM] | EC50 (W2 strain [5]) [nM] | other results
1 | Cc1cc(Oc2c(-c3ccc(F)cc3)nc3n2CCN(C(=O)CN)C3(C)C)ccc1F [Compound 712] | 19 | – | – | –
2 | CC1(C)c2nc(-c3ccc(F)cc3)c(Nc3ccc(F)cc3)n2CCN1C(=O)CNC(=O)CCC1=[N+]2C(=Cc3ccc(-c4ccccc4)n3[B-]2(F)F)C=C1 [Compound 731] | 2270 | – | – | EC50 (W2 strain [1]; Plasmodium falciparum): 5610 nM
3 | CC1(C)c2nc(-c3ccc(F)cc3)c(Nc3ccc(F)cc3)n2CC(=O)N1CCO [Compound 688] | 106 | – | – | EC50 (W2 strain [1]; Plasmodium falciparum): 134 nM
4 | CC1(C)c2nc(-c3ccc(F)cc3)c(Oc3ccc(F)c(F)c3)n2CCN1C(=O)CN [Compound 711] | 34 | – | – | –
5 | CC(C)(N)C(=O)N1CCn2c(nc(-c3ccc(F)cc3)c2Nc2ccc(F)c(F)c2)C1 [Example 29, 2-amino-1-(3-(3,4-difluorophenylamino)-2-(4-fluorophenyl)-5,6-dihydroimidazo[1,2-a]pyrazin-7(8H)-yl)-2-methylpropan-1-one] | – | 30 | – | EC50 (W2 strain [1]): 36 nM; EC50 [2]: 7000 nM; IC50 [3]: > 30000 nM; inhibition of MK-2 [4]: 15%
6 | CC1(C)c2nc(-c3ccc(F)cc3)c(Nc3ccc(F)cc3)n2CC(=O)N1CCN [Compound 687, 7-(2-aminoethyl)-2-(4-fluorophenyl)-3-(4-fluorophenylamino)-8,8-dimethyl-7,8-dihydroimidazo[1,2-a]pyrazin-6(5H)-one] | 3420 | – | – | EC50 (W2 strain [1]; Plasmodium falciparum): 3350 nM
7 | Cc1ccc(S(=O)(=O)c2c(-c3ccc(F)cc3)nc3n2CCN(C(=O)CN)C3(C)C)cc1 [Compound 725] | 5210 | – | – | –
8 | CC1(C)c2nc(-c3ccc(F)cc3)c(Nc3ccc(F)cc3)n2CCN1C(=O)CN [example 412, 2-amino-1-(2-(4-fluorophenyl)-3-(4-fluorophenylamino)-8,8-dimethyl-5,6-dihydroimidazo[1,2-a]pyrazin-7(8H)-yl)ethanone] | – | 10 | 6 | EC50 [2]: 10000 nM; IC50 [3]: 24000 nM; inhibition of MK-2 [4]: 7%
9 | CC1(C)c2nc(-c3ccc(F)cc3)c(Oc3ccc(Cl)cc3)n2CCN1C(=O)CN [Compound 710] | 28 | – | – | –
10 | COc1ccc(-c2ccc3n2[B-](F)(F)[N+]2=C(C)C(CCC(=O)NCCCCCC(=O)NCC(=O)N4CCn5c(nc(-c6ccc(F)cc6)c5Nc5ccc(F)cc5)C4(C)C)=C(C)C2=C3)cc1 [Compound 732] | 1220 | – | – | EC50 (W2 strain [1]; Plasmodium falciparum): 1440 nM
11 | CC1(C)c2nc(-c3ccc(F)cc3)c(CC3CCCCC3)n2CCN1C(=O)CN [Compound 699] | 678 | – | – | –
12 | CC(C)(N)C(=O)N1CCn2c(nc(-c3ccc(F)cc3)c2Nc2ccc(Cl)c(Cl)c2)C1(C)C [Compound 587] | – | 10 | 12 | –
13 | Cc1ccc(Nc2c(-c3ccc(F)cc3)nc3n2CCN(C(=O)CN)C3(C)C)cc1F [Compound 533] | – | 30 | 22 | –
14 | CC1(C)c2nc(-c3ccc(F)cc3)c(Nc3ccc(C#N)cc3)n2CCN1C(=O)CN [Compound 425] | – | 10 | 12 | –
15 | Cc1ccc(Nc2c(-c3ccc(F)cc3)nc3n2CCN(C(=O)C(C)(C)N)C3(C)C)cc1 [Compound 529, 2-amino-1-(2-(4-fluorophenyl)-8,8-dimethyl-3-(p-tolylamino)-5,6-dihydroimidazo[1,2-a]pyrazin-7(8H)-yl)-2-methylpropan-1-one] | – | 2 | 4 | –
